From patent US20130211215A1, “HYPEROSMOTIC PREPARATIONS COMPRISING 5-AMINOLEVULINIC ACID OR DERIVATIVE AS PHOTOSENSITIZING AGENT” (Photocure ASA, priority 2010, published 2013)

Legend:
[1] = Systemic uptake from the colon assessed as PpIX skin fluorescence after colonic instillation; format: in vivo, hairless mice (C3.Cg/TifBomTac-hr)
Procedure: Experiments were performed in hairless mice weighing 20 g (C3.Cg/TifBomTac-hr). […] The animals were fasted for 24 hours but with free access to water before the experiment. Prior to administration of the test preparation, the mice were anaesthetised with Hypnorm/Dormicum. This was also repeated every second hour.
When ALA hexylester is administered sytemically, it induces PpIX formation in the entire body. The systemic uptake of ALA hexylester after colonic administration was therefore assessed as skin fluorescence. To assess the PpIX skin fluorescence, the mice were photographed using a fluorescence camera (Medeikonos PDD/PDT, Medeikonos AB, Gothenburg, Sweden) at excitation wavelengths of 365 and 405 nm and 2 sec illumination time. Each photo was calibrated to a fluorescence standard (Uranyl Standard, J&M, Analytische Mess and Regeltecknik, GmbH, Hamburg, Germany) and adjusted for background fluorescence. The mean amount of PpIX fluorescence in each image was calculated by means of image analyzer-software (MatLab 7.2.0.232, Math-Works, Natick, Mass., USA).
All dilutions were performed in 0.9% NaCl (150 mM=300 mOsmol/l). For the colon instillation, a 1000 μl micropipette with a plastic tip was used. […] In all experiments, instillation lasted until the experiment was finished (approx. 5 hours).
Increasing doses (8 to 40 mM ALA hexylester) were given by anal administration to mice and the resulting skin fluorescence measured as described. […] The resulting systemic fraction was proportional to the concentration of ALA hexylester in the enema.
The ALA hexylester was dissolved as the corresponding hydrochloride salt. 20 mM ALA hexylester constitutes an osmolarity of approx. 40 mOsmol/l.
(§1) The purpose of this study was to investigate the effect of adding sorbitol to an enema formulation containing 20 mM ALA hexylester in an attempt to reduce the systemic uptake of the photosensitizer. It was discovered in pilot experiments that sorbitol at concentrations above 300 mM gave diarrhea. Therefore, the effect of 300 mM sorbitol in 0.9% NaCl (600 mOsmol/l) was investigated by comparing the skin fluorescence in two mice that were given 20 mM ALA hexylester (in 0.9% NaCl) with the skin fluorescence in two mice that had received 20 mM ALA hexylester and 300 mM sorbitol. The osmolarities of these solutions are outlined below. • 1. 20 mM ALA hexylester in 0.9% NaCl: (40+300) mOsmol/l=340 mOsmol/l • 2. 20 mM ALA hexylester and 300 mM sorbitol in 0.9% NaCl: (40+300+300) mOsmol/l=640 mOsmol/l (hypertonic preparation)

[2] = Absorption from the colon after enema (pharmacokinetic studies with 14C-labelled agents, HAL enema studies); format: in vivo; conditions: enema preparations
Excerpt: Such high systemic uptake of photosensitizer may constitute a safety issue for the patient due to the high dosage of agent circulating within the bloodstream.

[3] = test system: pre-malignant conditions in the colon; conditions: enema, 200 mg in 500 ml or 1000 ml phosphate buffered saline; Mayinger et al. 2008; cited from earlier work
[4] = Osmolarity of preparations; format: physicochemical; conditions: calculated from concentrations
Excerpt: An osmometer may be used to determine the osmolarity of a solution. There are several different techniques employed in osmometry; vapour pressure depression osmometers determine the concentration of osmotically active particles that reduce the vapour pressure of a solution; membrane osmometers measure the osmotic pressure of a solution separated from pure solvent by a semi-permeable membrane; and freezing point depression osmometers are used to determine the osmotic strength of a solution (since osmotically active compounds depress the freezing point of a solution). Osmolarity may be measured using a vapour pressure osmometer such as that supplied by ELITech Group (Vapro 5600 vapour pressure osmometer). Where reference is made herein to specific values for osmolarity, these values may be determined using such apparatus operated under standard temperature and pressure conditions.
The osmolarity of small molecules can normally be calculated from their concentration in solution. For example, in the case of simple salts such as NaCl: 0.9% NaCl=150 mM. NaCl is fully dissociated in water and both Na^+ and Cl^− contribute to the osmolarity (i.e. each mole of NaCl becomes two osmoles in solution, one mole of Na^+ and one mole of Cl^−). The osmolarity is therefore 150 mM×2=300 mOsmol/l. […]

[5] = parameters: species or system mice; conditions: C3.Cg/TifBomTac-hr (hairless), mouse, in vivo
Procedure: as §1

CCCCCCOC(=O)CCC(=O)CN [ALA hexylester, 5-aminolevulinic acid hexyl ester]
skin fluorescence ([1]; 8 mM ALA hexylester (concentration used clinically), colonic instillation 0.6 ml in 0.9% NaCl, FIG. 1): no skin fluorescence
skin fluorescence ([1]; 20 mM ALA hexyl ester, colonic administration): reasonable levels of skin sensitivity
relationship between concentration in the enema and resulting skin fluorescence ([1]; 8 to 40 mM, anal administration, FIG. 1): clear dose-response relationship
concentration of ALA hexylester appearing saturating for skin fluorescence ([1]; colonic instillation 0.6 ml in 0.9% NaCl, FIG. 1): ≥ 30000 µM
absorption of the active photosensitizing agent in the colon [2]: absorption of a significant amount
more polyps detected by PDD than with white light endoscopic imaging [3]: 28%
osmolarity [4]: approx. 40 mOsmol/l

OC[C@@H](O)[C@@H](O)[C@H](O)[C@@H](O)CO [sorbitol]
sorbitol concentration that gave diarrhea [5]: above 300 mM
